Converted amounts (≈) assume the structure as drawn.
What was measured:
Type in all cases: cell-based, Staphylococcus aureus
MRSA USA300LAC = test: MIC by broth microdilution (CLSI); settings: Staphylococcus aureus, MRSA, 16 h
Protocol: The MIC values of the alkyl pyridinol derivatives against the S. aureus strain ATCC 25923, MRSA strains ATCC 33591, ATCC BAA-44, and USA300LAC, as well as the P. aeruginosa strain ATCC 27853, were determined by following the CLSI guidelines for the broth microdilution antibiotic sensitivity testing protocol. In brief, the overnight cultures were diluted into Mueller Hinton Broth (MHB) to a final inoculum concentration of 5 × 10^5 CFU/mL (O.D600nm = 0.00001) and dispensed into a 96-well polystyrene plate (Alkali Scientific, Fort Lauderdale, FL, USA). Alkyl pyridine compounds were diluted into inoculated MHB to the indicated concentrations from stock solutions that would allow for DMSO concentrations below 5%, resulting in a total volume of 200 μL per well. The plates were subsequently incubated at 37 °C for 16 h at 300 rpm. The MIC values, which are defined as the lowest compound concentration that inhibited growth, were determined from three biological replicates.

[1] = tested on: S. aureus strain USA300LAC biofilm; test: Inhibition of biofilm formation (crystal violet); settings: up to 4× MIC, in words
Protocol: (§1) The establishment of a bacterial biofilm usually begins with pathogen attachment to biotic and abiotic surfaces, and S. aureus is notorious for its ability to form biofilms on surfaces, such as implants and catheters, which presents a unique treatment challenge.
(§2) Overnight cultures of S. aureus strain USA300LAC were diluted into fresh TSB to an OD600nm = 0.001 and incubated aerobically at 37 °C until the mid-log phase. (A) To detect effects on biofilm formation, cultures were diluted to an OD600nm = 0.0001 in the presence and absence of JC-01-074 and vancomycin at concentrations of 0.5–4× MIC, respectively. (B) To detect effects on biofilm eradication, cultures were diluted to an OD600nm = 0.0001 and incubated under static conditions for 24 h, after which planktonic cells were removed, and the preformed biofilms were washed twice with PBS. […] Biofilm mass was quantified after 20 h via crystal violet staining. One-way ANOVA, Dunnett’s multiple-comparison test (* p < 0.05, ** p < 0.01); (n = 3, ±S.D.).
The overnight USA300LAC cultures were diluted 1000-fold into the fresh TSB media and incubated under shaking conditions at 37 °C until the mid-log phase. The cultures were subsequently diluted to approximately 4 × 10^6 CFU/mL and dispended into 96-well polystyrene plates (Alkali Scientific, Fort Lauderdale, FL, USA) containing DMSO (control), vancomycin (0.5–4× MIC), or the indicated alkyl pyridinol compounds (0.5–4× MIC) and sealed with a breath-easy membrane (Fisherbrand, Waltham, MA, USA). The peripheral wells were filled with PBS to limit evaporation. The plates were incubated without agitation at 37 °C for 24 h, following which the planktonic cells were removed. The biofilms were washed twice with PBS, stained with 0.1% crystal violet (CV) for 15 min, and washed again twice with PBS to remove the unbound CV dye. CV bound to biofilm cells was extracted with 30% (v/v) glacial acetic acid, and the O.D.595nm was determined.

[2] = tested on: S. aureus strain USA300LAC established biofilm; test: Biofilm eradication assay (crystal violet); settings: at or below 4× MIC, 24 h, in words
Protocol: as §1, §2
The overnight USA300LAC cultures were diluted 1000-fold into the TSB media and incubated under shaking conditions at 37 °C until the mid-log phase. […] After 24 h of incubation, biofilm eradication was assessed via CV staining at 595 nm in a Tecan 200 Infinite Pro microplate reader (Tecan, Morgan Hill, CA, USA).

[3] = tested on: S. aureus strain USA300LAC; test: Checkerboard assay with JC-01-074 (FIC index); settings: MHB, 37 °C, 20 h, antibiotic combined with JC-01-074
Protocol: Therefore, we tested whether the membrane-disrupting effects of JC-01-074 could increase the sensitivity of the S. aureus strain USA300LAC to antibiotics of different classes; for instance, by facilitating their uptake into the cytoplasm. […] Antibiotic concentrations were prepared by the microbroth dilution in MHB based on their MIC values (Table 1) to obtain the final concentrations as outlined in the 96-well plate scheme for each antibiotic tested (Supplementary Figure S3). Overnight USA300LAC cultures were diluted to 5 × 10^5 CFU/mL in MHB, and the growth was recorded at 37 °C and 200 rpm for 20 h in the presence and absence of the indicated antibiotic.
FICs were calculated as the ratio of the MIC of the antimicrobial in combination with the MIC of the antimicrobial alone. Interactions were categorized as synergistic (<0.5), additive or no interaction (0.5–2), and antagonistic (>2). FICs were calculated from three biological replicates.
Following previous studies, the checkerboard assay was employed to determine whether JC-01-074 had synergistic effects in combination with members of different antibiotic classes. The indicated antibiotics tested in combination were first serially diluted two-fold in MHB on a longitudinal axis in a 96-well polystyrene plate. JC-01-074 was then serially diluted two-fold across the 96-well plate horizontal axis. The plates were inoculated with USA300LAC to a final inoculum concentration of 5 x10^5 CFU/mL (O.D.600nm = 0.0001) and incubated overnight at 37 °C for 20 h. The growth was measured at 600 nm in a Tecan 200 Infinite Pro microplate reader. The fractional inhibitory concentration was calculated as follows:FIC = MICJC-01-074 + antibiotics/[…]
The classification of interactions was based on the FIC index: interactions were categorized as synergistic (FIC ≤ 0.5), additive/no interaction (FIC 0.5–2.0), and antagonistic (FIC > 2.0).

## CN[C@H](CC(C)C)C(=O)N[C@H]1C(=O)N[C@@H](CC(N)=O)C(=O)N[C@H]2C(=O)N[C@H]3C(=O)N[C@H](C(=O)N[C@H](C(=O)O)c4cc(O)cc(O)c4-c4cc3ccc4O)[C@H](O)c3ccc(c(Cl)c3)Oc3cc2cc(c3O[C@@H]2O[C@H](CO)[C@@H](O)[C@H](O)[C@H]2O[C@H]2C[C@](C)(N)[C@H](O)[C@H](C)O2)Oc2ccc(cc2Cl)[C@H]1O [Vancomycin, reference compound]
MRSA USA300LAC
  MIC: 1 µg/mL (≈ 0.69 µM)
[1]
  inhibition of biofilm formation: failed to significantly inhibit biofilm formation
[2]
  eradication of established biofilms: neither JC-01-074 nor vancomycin successfully reduced established biofilms
[3]
  interaction with JC-01-074 (sum of FIC values): additive (additive/no interaction (FIC 0.5–2.0))
